Test results as given in ChEMBL document CHEMBL3044576, “Synthesis of promising antimicrobial agents: a novel series of N-(4-(2,6-dichloroquinolin-3-yl)-6-(aryl)pyrimidin-2-yl)-2-morpholinoacetamides” (2013).
≈ marks a conversion by molar mass, not a printed value.

How the values were obtained:
Assay type in all cases: functional
[1] = test system: Aspergillus clavatus; assay: Antifungal activity against Aspergillus clavatus MTCC 1323 after 72 hr by serial broth dilution method; conditions: MTCC 1323, 72 h
[2] = test system: Aspergillus niger; assay: Antifungal activity against Aspergillus niger MTCC 282 after 72 hr by serial broth dilution method; conditions: MTCC 282, 72 h
[3] = test system: Candida albicans; assay: Antifungal activity against Candida albicans MTCC 227 after 72 hr by serial broth dilution method; conditions: MTCC 227, 72 h
[4] = test system: Streptococcus pyogenes; assay: Antibacterial activity against Streptococcus pyogenes MTCC 442 after 24 to 48 hr by serial broth dilution method
[5] = test system: Staphylococcus aureus; assay: Antibacterial activity against Staphylococcus aureus MTCC 96 after 24 to 48 hr by serial broth dilution method
[6] = test system: Pseudomonas aeruginosa; assay: Antibacterial activity against Pseudomonas aeruginosa MTCC 1688 after 24 to 48 hr by serial broth dilution method
[7] = test system: Escherichia coli; assay: Antibacterial activity against Escherichia coli MTCC 443 after 24 to 48 hr by serial broth dilution method

SMILES: O=C(CN1CCOCC1)Nc1nc(-c2ccccc2)cc(-c2cc3cc(Cl)ccc3nc2Cl)n1
- MIC [1]: 1000 µg/mL (≈ 2020 µM)
- MIC [2]: 1000 µg/mL (≈ 2020 µM)
- MIC [3]: 1000 µg/mL (≈ 2020 µM)
- MIC [4]: 1000 µg/mL (≈ 2020 µM)
- MIC [5]: 1000 µg/mL (≈ 2020 µM)
- MIC [6]: 250 µg/mL (≈ 506 µM)
- MIC [7]: 500 µg/mL (≈ 1010 µM)

SMILES: O=C(CN1CCOCC1)Nc1nc(-c2ccccc2O)cc(-c2cc3cc(Cl)ccc3nc2Cl)n1
- MIC [1]: 500 µg/mL (≈ 980 µM)
- MIC [2]: 500 µg/mL (≈ 980 µM)
- MIC [3]: 1000 µg/mL (≈ 1960 µM)
- MIC [4]: 500 µg/mL (≈ 980 µM)
- MIC [5]: 500 µg/mL (≈ 980 µM)
- MIC [6]: 250 µg/mL (≈ 490 µM)
- MIC [7]: 500 µg/mL (≈ 980 µM)

SMILES: O=C(CN1CCOCC1)Nc1nc(-c2ccc(O)cc2)cc(-c2cc3cc(Cl)ccc3nc2Cl)n1
- MIC [1]: 1000 µg/mL (≈ 1960 µM)
- MIC [2]: 1000 µg/mL (≈ 1960 µM)
- MIC [3]: 1000 µg/mL (≈ 1960 µM)
- MIC [4]: 1000 µg/mL (≈ 1960 µM)
- MIC [5]: 500 µg/mL (≈ 980 µM)
- MIC [6]: 1000 µg/mL (≈ 1960 µM)
- MIC [7]: 500 µg/mL (≈ 980 µM)

SMILES: COc1ccc(-c2cc(-c3cc4cc(Cl)ccc4nc3Cl)nc(NC(=O)CN3CCOCC3)n2)cc1
- MIC [1]: 500 µg/mL (≈ 953 µM)
- MIC [2]: 500 µg/mL (≈ 953 µM)
- MIC [3]: 1000 µg/mL (≈ 1910 µM)
- MIC [4]: 500 µg/mL (≈ 953 µM)
- MIC [5]: 500 µg/mL (≈ 953 µM)
- MIC [6]: 250 µg/mL (≈ 477 µM)
- MIC [7]: 250 µg/mL (≈ 477 µM)

SMILES: O=C(CN1CCOCC1)Nc1nc(-c2ccccc2Cl)cc(-c2cc3cc(Cl)ccc3nc2Cl)n1
- MIC [1]: 25 µg/mL (≈ 47.3 µM)
- MIC [2]: 100 µg/mL (≈ 189 µM)
- MIC [3]: 500 µg/mL (≈ 945 µM)
- MIC [4]: 100 µg/mL (≈ 189 µM)
- MIC [5]: 250 µg/mL (≈ 473 µM)
- MIC [6]: 250 µg/mL (≈ 473 µM)
- MIC [7]: 50 µg/mL (≈ 94.5 µM)

SMILES: O=C(CN1CCOCC1)Nc1nc(-c2ccc(Cl)cc2)cc(-c2cc3cc(Cl)ccc3nc2Cl)n1
- MIC [1]: 100 µg/mL (≈ 189 µM)
- MIC [2]: 100 µg/mL (≈ 189 µM)
- MIC [3]: 100 µg/mL (≈ 189 µM)
- MIC [4]: 50 µg/mL (≈ 94.5 µM)
- MIC [5]: 250 µg/mL (≈ 473 µM)
- MIC [6]: 25 µg/mL (≈ 47.3 µM)
- MIC [7]: 100 µg/mL (≈ 189 µM)

SMILES: O=C(CN1CCOCC1)Nc1nc(-c2ccccc2F)cc(-c2cc3cc(Cl)ccc3nc2Cl)n1
- MIC [1]: 50 µg/mL (≈ 97.6 µM)
- MIC [2]: 25 µg/mL (≈ 48.8 µM)
- MIC [3]: 250 µg/mL (≈ 488 µM)
- MIC [4]: 100 µg/mL (≈ 195 µM)
- MIC [5]: 50 µg/mL (≈ 97.6 µM)
- MIC [6]: 50 µg/mL (≈ 97.6 µM)
- MIC [7]: 50 µg/mL (≈ 97.6 µM)

SMILES: O=C(CN1CCOCC1)Nc1nc(-c2cccc(F)c2)cc(-c2cc3cc(Cl)ccc3nc2Cl)n1
- MIC [1]: 100 µg/mL (≈ 195 µM)
- MIC [2]: 100 µg/mL (≈ 195 µM)
- MIC [3]: 1000 µg/mL (≈ 1950 µM)
- MIC [4]: 500 µg/mL (≈ 976 µM)
- MIC [5]: 250 µg/mL (≈ 488 µM)
- MIC [6]: 100 µg/mL (≈ 195 µM)
- MIC [7]: 100 µg/mL (≈ 195 µM)

SMILES: O=C(CN1CCOCC1)Nc1nc(-c2ccc(F)cc2)cc(-c2cc3cc(Cl)ccc3nc2Cl)n1
- MIC [1]: 12.5 µg/mL (≈ 24.4 µM)
- MIC [2]: 1000 µg/mL (≈ 1950 µM)
- MIC [3]: 500 µg/mL (≈ 976 µM)
- MIC [4]: 100 µg/mL (≈ 195 µM)
- MIC [5]: 500 µg/mL (≈ 976 µM)
- MIC [6]: 250 µg/mL (≈ 488 µM)
- MIC [7]: 25 µg/mL (≈ 48.8 µM)

SMILES: O=C(CN1CCOCC1)Nc1nc(-c2ccccc2[N+](=O)[O-])cc(-c2cc3cc(Cl)ccc3nc2Cl)n1
- MIC [1]: 50 µg/mL (≈ 92.7 µM)
- MIC [2]: 25 µg/mL (≈ 46.3 µM)
- MIC [3]: 100 µg/mL (≈ 185 µM)
- MIC [4]: 12.5 µg/mL (≈ 23.2 µM)
- MIC [5]: 500 µg/mL (≈ 927 µM)
- MIC [6]: 50 µg/mL (≈ 92.7 µM)
- MIC [7]: 12.5 µg/mL (≈ 23.2 µM)

SMILES: O=C(CN1CCOCC1)Nc1nc(-c2cccc([N+](=O)[O-])c2)cc(-c2cc3cc(Cl)ccc3nc2Cl)n1
- MIC [1]: 100 µg/mL (≈ 185 µM)
- MIC [2]: 50 µg/mL (≈ 92.7 µM)
- MIC [3]: 500 µg/mL (≈ 927 µM)
- MIC [4]: 100 µg/mL (≈ 185 µM)
- MIC [5]: 50 µg/mL (≈ 92.7 µM)
- MIC [6]: 100 µg/mL (≈ 185 µM)
- MIC [7]: 100 µg/mL (≈ 185 µM)

SMILES: O=C(CN1CCOCC1)Nc1nc(-c2ccc([N+](=O)[O-])cc2)cc(-c2cc3cc(Cl)ccc3nc2Cl)n1
- MIC [1]: 25 µg/mL (≈ 46.3 µM)
- MIC [2]: 100 µg/mL (≈ 185 µM)
- MIC [3]: 250 µg/mL (≈ 463 µM)
- MIC [4]: 250 µg/mL (≈ 463 µM)
- MIC [5]: 100 µg/mL (≈ 185 µM)
- MIC [6]: 250 µg/mL (≈ 463 µM)
- MIC [7]: 250 µg/mL (≈ 463 µM)

SMILES: CC1(C)S[C@@H]2[C@H](NC(=O)[C@H](N)c3ccccc3)C(=O)N2[C@H]1C(=O)O [AMPICILLIN]
- MIC [4]: 100 µg/mL (≈ 286 µM)
- MIC [5]: 250 µg/mL (≈ 715 µM)
- MIC [6]: 100 µg/mL (≈ 286 µM)
- MIC [7]: 100 µg/mL (≈ 286 µM)

SMILES: COC1=CC(=O)C[C@@H](C)[C@]12Oc1c(Cl)c(OC)cc(OC)c1C2=O [GRISEOFULVIN]
- MIC [1]: 100 µg/mL (≈ 283 µM)
- MIC [2]: 100 µg/mL (≈ 283 µM)
- MIC [3]: 500 µg/mL (≈ 1420 µM)
